{"source": "patent EP1964562A1", "about": "“PHARMACEUTICAL COMPOSITIONS CONTAINING DERIVATIVE SUBSTANCES OF THIAZOLIDINEDIONES COMBINED WITH A BIGUANIDE FOR USE IN TYPE 2 DIABETES MELLITUS” (priority 2005, dated 2007)", "key": {"[1]": {"test_system": "hepatic pioglitazone metabolism", "conditions": "in vitro, molar concentration equal to pioglitazone; cited from earlier work"}, "[2]": {"test_system": "animal models of diabetes", "conditions": "animal models of type 2 diabetes; cited from earlier work"}, "[3]": {"target": "T1, serum proteins, particularly serum albumin (Homo sapiens, UniProt P02768)", "T1 construct": "host or cells: serum", "T1 sequence (P02768 25-609)": "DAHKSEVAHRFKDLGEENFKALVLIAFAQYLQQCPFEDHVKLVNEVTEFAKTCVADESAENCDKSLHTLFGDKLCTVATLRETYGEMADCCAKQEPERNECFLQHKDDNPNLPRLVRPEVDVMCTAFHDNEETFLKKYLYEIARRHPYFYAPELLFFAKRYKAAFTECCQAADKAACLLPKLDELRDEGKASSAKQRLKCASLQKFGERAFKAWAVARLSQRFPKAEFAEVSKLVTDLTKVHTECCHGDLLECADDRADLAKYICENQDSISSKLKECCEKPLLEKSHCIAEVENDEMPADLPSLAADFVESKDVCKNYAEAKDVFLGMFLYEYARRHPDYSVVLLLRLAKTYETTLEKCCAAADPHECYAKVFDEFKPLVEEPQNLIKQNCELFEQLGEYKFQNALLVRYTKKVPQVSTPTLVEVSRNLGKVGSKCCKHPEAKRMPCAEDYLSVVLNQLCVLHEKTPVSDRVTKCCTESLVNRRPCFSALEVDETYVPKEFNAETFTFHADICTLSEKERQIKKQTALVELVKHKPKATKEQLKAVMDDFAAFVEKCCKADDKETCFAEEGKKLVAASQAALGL", "conditions": "serum albumin; cited from earlier work"}, "[4]": {"test_system": "individuals diagnosed with DM2 and obesity", "assay": "Example 1: multicentric, randomized, double blind placebo-controlled trial, 8 weeks", "type": "in vivo, patients", "procedure": "A multicentric, randomized, double blind placebo-controlled trial was conducted. In which 600 individuals diagnosed with DM2 and obesity with a BMI higher than 35 kg/m^2 were included."}, "[5]": {"conditions": "cited from earlier work"}, "[6]": {"test_system": "lipid metabolism", "conditions": "therapeutic doses, short and long term clinical studies; cited from earlier work"}, "[7]": {"test_system": "patients diagnosed with DM2 and obesity", "assay": "Example 2: multicentric, randomized, double blind placebo-controlled trial, 12 weeks", "type": "in vivo", "conditions": "compared to levels at admission", "procedure": "A multicentric, randomized, double blind placebo-controlled trial was conducted. In which 300 patients diagnosed with DM2 and obesity were included. The object of the study was to establish the reduction in lipid profile and in overweight."}, "[8]": {"test_system": "P-450 activity", "conditions": "incubated with human P-450 liver microsomes; cited from earlier work"}, "[9]": {"test_system": "serum proteins, particularly serum albumin", "conditions": "human; cited from earlier work"}, "[10]": {"conditions": "cited from earlier work", "remark": "listed apart in the source"}}, "note": "Read-outs that look alike come from different tables or passages of the source."}
{"smiles": "CC(=O)N1CCN(c2ccc(OCC3COC(Cn4ccnc4)(c4ccc(Cl)cc4Cl)O3)cc2)CC1", "note": "(centres unmarked) [Ketoconazole]", "values": [{"measurement": "inhibition of hepatic pioglitazone metabolism", "setting": "[1]", "value": "up to 85%"}]}
{"smiles": "CC(=O)c1ccc(CCOc2ccc(CC3SC(=O)NC3=O)cc2)nc1", "note": "(centres unmarked) [M-III]", "values": [{"measurement": "pharmacological activity", "setting": "[2]", "value": "pharmacologically active"}, {"measurement": "bound to serum albumin", "setting": "[3]", "value": "> 98", "unit": "%"}]}
{"smiles": "CC(O)c1ccc(CCOc2ccc(CC3SC(=O)NC3=O)cc2)nc1", "note": "(centres unmarked) [M-IV]", "values": [{"measurement": "pharmacological activity", "setting": "[2]", "value": "pharmacologically active"}, {"measurement": "bound to serum albumin", "setting": "[3]", "value": "> 98", "unit": "%"}]}
{"smiles": "CN(C)C(=N)N=C(N)N", "note": "[metformin, Metformin]", "values": [{"measurement": "patients' weight change", "setting": "[4]", "value": "increased"}, {"measurement": "increase of Tmax by food", "setting": "[5]; dose of 850 mg, with food", "value": 0.583, "unit": "h"}, {"measurement": "Tmax", "setting": "[5]; human, in vivo, po", "value": 2.5, "unit": "h"}, {"measurement": "maximum plasma concentration", "setting": "[5]; human, in vivo, po", "value": "≤ 4", "unit": "µg/mL"}, {"measurement": "non-absorbed fraction recovered in the feces", "setting": "[5]; human, in vivo, po", "value": "20-30%"}, {"measurement": "steady-state plasma concentrations", "setting": "[5]; human, in vivo, po", "value": "less than 1 µg/ml"}, {"measurement": "maximum plasma concentration", "setting": "[5]; human, plasma, po", "value": 1.5, "unit": "µg/mL"}, {"measurement": "plasma concentrations in cases of lactacidosis", "setting": "[5]; in vivo", "value": "exceed 5 µg/ml"}, {"measurement": "total cholesterol, LDL cholesterol and triglyceride levels", "setting": "[6]", "value": "reduces"}, {"measurement": "reduction in triglycerides", "setting": "[7]", "value": "no significant reduction"}]}
{"smiles": "CCc1ccc(CCOc2ccc(CC3SC(=O)NC3=O)cc2)nc1", "note": "(centres unmarked) [pioglitazone, Pioglitazone]", "values": [{"measurement": "inhibition of P-450 activity", "setting": "[8]", "value": "did not inhibit"}, {"measurement": "bound to serum proteins", "setting": "[9]", "value": "> 99", "unit": "%"}, {"measurement": "apparent clearance, CL/F", "setting": "[10]; calculated", "value": "5 to 7", "unit": "L/h"}, {"measurement": "mean serum half-live", "setting": "[10]; human, serum", "value": "3 to 7", "unit": "h"}, {"measurement": "renal elimination", "setting": "[10]; in vivo", "value": "negligible"}, {"measurement": "time to reach steady-state serum concentrations", "setting": "[10]; in vivo", "value": "≤ 7", "unit": "days"}, {"measurement": "time to maximum concentrations", "setting": "[10]; oral administration at fasting", "value": "≤ 2", "unit": "h"}, {"measurement": "time until measurable in serum", "setting": "[10]; oral administration at fasting", "value": "≤ 30", "unit": "min"}]}
